# Like-named read-outs stand apart in the source and are kept apart here.
# Legend:
# [1] = tested on: seed geranium (Pelargonium×hortorum); details: in combination with nitrogen, phosphorus, and potassium; cited from earlier work
# humans [2] = details: cited from earlier work
# French marigold = details: in vivo; cited from earlier work
# chlorophyllitic plants [3] = details: in vivo; cited from earlier work
# chlorophyllitic plants [4] = assay: Photosynthetic disruption by glyphosate; assay type: in vivo
# Description: Extensive research has documented that plants are often sensitive to relatively minute concentrations or exposures to unique synthetic compounds or combinations of naturally occurring elements, including micronutrients. For example, glyphosate (aka ROUNDUP®, a synthetic Monsanto/Bayer product) is effective at causing photosynthetic disruption in chlorophyllitic plants at an application rate of as little as 0.75 pounds active ingredient per acre, which equates to only approximately 8 mg/square foot of application, equivalent to approximately 14 ppm application rate. The American Phytopathological Society (APS) reported that micronutrients are generally toxic when present in high amounts, although ‘high concentrations’ are not clearly defined, and little toxicity have been reported at exceptionally low micronutrient concentrations. This occurrence is known as micronutrient toxicity syndrome (MTS). […] In addition, plants can vary considerably from species to species in their susceptibility to nutrient toxicities. For example, Lee and others (1996) reported inducing seed geranium (Pelargonium×hortorum) micronutrient toxicity symptoms by applying nutrient solutions containing 0.5 mg/L B, Cu, or Zn, or as little as 0.25 mg/L Mo, in combination with nitrogen, phosphorus, and potassium. […]
# humans [5] = details: 2005 carcinogen assessment guidelines; cited from earlier work
compound,measurement,setting,value
"[Zn] [Zn, zinc]",nutrient solution concentration inducing micronutrient toxicity symptoms,[1],0.5 mg/L
OB(O)O [boric acid],endocrine disruptor classification,humans [2],neither classified as endocrine disruptors
[B] [boron],concentration inducing micro-nutrient toxicity,French marigold,500 ng/mL
same,endocrine disruptor classification,humans [2],neither classified as endocrine disruptors
[Cu] [copper],concentration inducing micro-nutrient toxicity,French marigold,4000 ng/mL
O=C(O)CNCP(=O)(O)O [glyphosate],application rate effective at causing photosynthetic disruption,chlorophyllitic plants [3],0.75 pounds active ingredient per acre
same,application rate effective at causing photosynthetic disruption,chlorophyllitic plants [4]; equates to the rate per acre,approximately 8 mg/square foot
same,application rate effective at causing photosynthetic disruption,chlorophyllitic plants [4]; equivalent application rate,approximately 14 ppm
[Mn+2] [manganese],concentration inducing micro-nutrient toxicity,French marigold,1000 ng/mL
[Mo] [molybdenum],concentration inducing micro-nutrient toxicity,French marigold,5000 ng/mL
borate salts,U.S. EPA carcinogenicity classification,humans [5],not likely to be carcinogenic to humans
same,endocrine disruptor classification,humans [2],neither classified as endocrine disruptors
